Measured values from patent EP4772513A1, “PI3K-ALPHA INHIBITOR AND USE THEREOF” (TYK Medicines (Zhengzhou), Inc., priority 2023, dated 2025).

Experiments:
[1] = test system: Human breast cancer cells SK-BR-3 (WT); experiment: Cell proliferation inhibition assay (CTG), SK-BR-3 (WT); type: cell-based; details: Homo sapiens, 72 h, SK-BR-3 (WT) cells, 3 days incubation, CTG readout
Method: (§1) Cell Proliferation Inhibition Assay
(§2) 1. Experimental Materials
(§3) II. Experimental Protocol
(§4) • a) Cell suspension was prepared; • b) The medium was removed from the culture flask; • c) The cells were rinsed once with PBS; • d) Trypsin was added for digestion, and the cells were centrifuged and collected; • e) The cells were resuspended in medium, counted and adjusted to an appropriate concentration; • f) 100 µL of cell suspension was added to each well of a 96-well plate. One plate was used for each cell line, which was incubated overnight in a 37 °C, 5% CO2 incubator.
(§5) 2. Treatment of Compounds
(§6) • a) Serial dilutions of the test compounds were prepared: The compound was prepared as a 10 mM stock solution. 18 µL of the stock solution was dissolved in 982 µL of the culture medium containing DMSO, followed by 4-fold serial dilutions in culture medium containing 0.5% DMSO to give 9 concentrations. The concentrations of the diluted compound were as follows: 180000 nM, 45000 nM, 11250 nM, 2812.5 nM, 703.13 nM, 175.78 nM, 43.95 nM, 10.99 nM, and 2.75 nM. • b) After thorough mixing, 20 µL of each compound solution was added to the cell plate containing 100 µL of cells per well. Each concentration was tested in triplicate. Final concentrations of the compound were as follows: 30000 nM, 7500 nM, 1875 nM, 468.75 nM, 117.188 nM, 29.30 nM, 7.32 nM, 1.83 nM, and 0.46 nM. • c) The cells were transferred into the incubator and incubated for 3 days.
(§7) The cell plate was removed, 25 µL of CTG reagent was added to each well of the 96-well plate, the mixture was shook on a plate shaker at room temperature for 10 minutes, and the plate was read.
(§8) The cell survival rate was calculated using the following formula (% Cell Survival): % Cell Survival = 100% × (OD_Sample−OD_LCave)/(OD_HC−OD_LCave) [formula] • OD_HC: Reading of the 0.1‰ DMSO control group • OD_Sample: Reading of cells treated with compound • OD_LCave: Reading of blank medium
(§9) Analyzed by Prism: Dose-response-Inhibition - Log (inhibitor) vs response (three parameters for the best fit).

[2] = test system: Human breast cancer cells T47D (H1047R); experiment: Cell proliferation inhibition assay (CTG), T47D (H1047R); type: cell-based; details: Homo sapiens, 72 h, 3 days incubation, CTG readout
Method: as §1, §2, §3, §4, §5, §6, §7, §8, §9

C[C@@H](Nc1ccc(Cl)nc1C(=O)O)c1cc(F)cc2c(=O)c3c(oc12)CN(S(=O)(=O)C1CCCCC1)CC3 [Compound C109]
IC50 [1]: > 5 µM
IC50 [2]: ≤ 0.5 µM

Cc1cc([C@@H](C)Nc2ccc(Cl)nc2C(=O)O)c2oc3c(c(=O)c2c1)CCN(S(=O)(=O)C1(C)CC1)C3 [Compound C113]
IC50 [1]: > 5 µM
IC50 [2]: ≤ 0.5 µM

C[C@@H](Nc1ccc(Cl)nc1C(=O)O)c1cc(F)cc2c(=O)c3c(oc12)CN(S(=O)(=O)c1c(F)cccc1F)CC3 [Compound C114]
IC50 [1]: > 5 µM
IC50 [2]: ≤ 0.5 µM

C[C@@H](Nc1ccc(Cl)nc1C(=O)O)c1cc(F)cc2c(=O)c3c(oc12)CN(S(=O)(=O)c1ccccc1C(F)(F)F)CC3 [Compound C115]
IC50 [1]: > 5 µM
IC50 [2]: ≤ 0.5 µM

C[C@@H]1COCCN1S(=O)(=O)N1CCc2c(oc3c([C@@H](C)Nc4ccc(Cl)nc4C(=O)O)cc(F)cc3c2=O)C1 [Compound C116]
IC50 [1]: > 5 µM
IC50 [2]: ≤ 0.5 µM

C[C@@H](Nc1ccc(Cl)nc1C(=O)O)c1cc(F)cc2c(=O)c3c(oc12)CN(S(=O)(=O)N1CCOC[C@@H]1C)CC3 [Compound C117]
IC50 [1]: > 5 µM
IC50 [2]: ≤ 0.5 µM

Cc1noc(C)c1S(=O)(=O)N1CCc2c(oc3c([C@@H](C)Nc4ccc(Cl)nc4C(=O)O)cc(F)cc3c2=O)C1 [Compound C118]
IC50 [1]: > 5 µM
IC50 [2]: ≤ 0.5 µM

C[C@@H](Nc1ccc(Cl)nc1C(=O)O)c1cc(F)cc2c(=O)c3c(oc12)CN(S(=O)(=O)c1cccc2c1CCO2)CC3 [Compound C120]
IC50 [1]: > 5 µM
IC50 [2]: ≤ 0.5 µM

C[C@@H](Nc1ccc(Cl)nc1C(=O)O)c1cc(F)cc2c(=O)c3c(oc12)CN(S(=O)(=O)N1CCC(F)(F)CC1)CC3 [Compound C121]
IC50 [1]: > 5 µM
IC50 [2]: ≤ 0.5 µM

C[C@@H]1CN(S(=O)(=O)N2CCc3c(oc4c([C@@H](C)Nc5ccc(Cl)nc5C(=O)O)cc(F)cc4c3=O)C2)CCO1 [Compound C122]
IC50 [1]: > 5 µM
IC50 [2]: ≤ 0.5 µM

C[C@H]1CN(S(=O)(=O)N2CCc3c(oc4c([C@@H](C)Nc5ccc(Cl)nc5C(=O)O)cc(F)cc4c3=O)C2)CCO1 [Compound C123]
IC50 [1]: > 5 µM
IC50 [2]: ≤ 0.5 µM

C[C@@H](Nc1ccc(Cl)nc1C(=O)O)c1cc(F)cc2c(=O)c3c(oc12)CN(S(=O)(=O)c1cccc(=O)n1C)CC3 [Compound C124]
IC50 [1]: > 5 µM
IC50 [2]: 0.5 to 2 µM

Cc1nn(C)c(C)c1S(=O)(=O)N1CCc2c(oc3c([C@@H](C)Nc4ccc(Cl)nc4C(=O)O)cc(F)cc3c2=O)C1 [Compound C125]
IC50 [1]: > 5 µM
IC50 [2]: ≤ 0.5 µM

Cc1ncn(C)c1S(=O)(=O)N1CCc2c(oc3c([C@@H](C)Nc4ccc(Cl)nc4C(=O)O)cc(F)cc3c2=O)C1 [Compound C126]
IC50 [1]: > 5 µM
IC50 [2]: 0.5 to 2 µM

C[C@@H]1CN(S(=O)(=O)N2CCc3c(oc4c([C@@H](C)Nc5ccc(Cl)nc5C(=O)O)cc(F)cc4c3=O)C2)C[C@@H](C)O1 [Compound C127]
IC50 [1]: > 5 µM
IC50 [2]: ≤ 0.5 µM

Cc1cnn(C)c1S(=O)(=O)N1CCc2c(oc3c([C@@H](C)Nc4ccc(Cl)nc4C(=O)O)cc(F)cc3c2=O)C1 [Compound C128]
IC50 [1]: > 5 µM
IC50 [2]: ≤ 0.5 µM

C[C@@H](Nc1ccc(Cl)nc1C(=O)O)c1cc(F)cc2c(=O)c3c(oc12)CN(S(=O)(=O)c1cc(F)cc(F)c1F)CC3 [Compound C129]
IC50 [1]: > 5 µM
IC50 [2]: ≤ 0.5 µM

C[C@@H](Nc1ccc(Cl)nc1C(=O)O)c1cc(F)cc2c(=O)c3c(oc12)CN(S(=O)(=O)N1CCOC(C)(C)C1)CC3 [Compound C130]
IC50 [1]: > 5 µM
IC50 [2]: ≤ 0.5 µM

C[C@H]1CN(S(=O)(=O)N2CCc3c(oc4c([C@@H](C)Nc5ccc(Cl)nc5C(=O)O)cc(F)cc4c3=O)C2)C[C@H](C)O1 [Compound C132]
IC50 [1]: > 5 µM
IC50 [2]: ≤ 0.5 µM

CC1CN(S(=O)(=O)N2CCc3c(oc4c(C(C)Nc5ccc(Cl)nc5C(=O)O)cc(F)cc4c3=O)C2)CC(C)O1 (stereo not shown) [Compound C133]
IC50 [1]: > 5 µM
IC50 [2]: ≤ 0.5 µM

Cc1nnn(C)c1S(=O)(=O)N1CCc2c(oc3c([C@@H](C)Nc4ccc(Cl)nc4C(=O)O)cc(F)cc3c2=O)C1 [Compound C134]
IC50 [1]: > 5 µM
IC50 [2]: ≤ 0.5 µM

C[C@@H](Nc1ccc(Cl)nc1C(=O)O)c1cc(F)cc2c(=O)c3c(oc12)CN(S(=O)(=O)c1c(F)ccc(F)c1F)CC3 [Compound C135]
IC50 [1]: > 5 µM
IC50 [2]: ≤ 0.5 µM

C[C@@H](Nc1ccc(Cl)nc1C(=O)O)c1cc(F)cc2c(=O)c3c(oc12)CN(S(=O)(=O)c1cccn2ncc(Cl)c12)CC3 [Compound C137]
IC50 [1]: > 5 µM
IC50 [2]: ≤ 0.5 µM

C[C@@H](Nc1ccc(Cl)nc1C(=O)O)c1cc(F)cc2c(=O)c3c(oc12)CN(S(=O)(=O)C1=CCOCC1)CC3 [Compound C138]
IC50 [1]: > 5 µM
IC50 [2]: ≤ 0.5 µM

Cc1cc([C@@H](C)Nc2ccccc2C(=O)O)c2oc3c(c(=O)c2c1)CCN(S(=O)(=O)c1c(C)noc1C)C3 [Compound C139]
IC50 [1]: > 5 µM
IC50 [2]: ≤ 0.5 µM

Cc1noc(C)c1S(=O)(=O)N1CCc2c(oc3c([C@@H](C)Nc4ccccc4C(=O)O)cc(F)cc3c2=O)C1 [Compound C140]
IC50 [1]: > 5 µM
IC50 [2]: ≤ 0.5 µM

C[C@@H](Nc1ccccc1C(=O)O)c1cc(F)cc2c(=O)c3c(oc12)CN(S(=O)(=O)N1CCC(F)(F)CC1)CC3 [Compound C141]
IC50 [1]: > 5 µM
IC50 [2]: 0.5 to 2 µM

Cc1cc([C@@H](C)Nc2ccccc2C(=O)O)c2oc3c(c(=O)c2c1)CCN(S(=O)(=O)N1CCOC(C)(C)C1)C3 [Compound C142]
IC50 [1]: > 5 µM
IC50 [2]: ≤ 0.5 µM

C[C@@H](Nc1ccccc1C(=O)O)c1cc(F)cc2c(=O)c3c(oc12)CN(S(=O)(=O)N1CCOC(C)(C)C1)CC3 [Compound C143]
IC50 [1]: > 5 µM
IC50 [2]: ≤ 0.5 µM

Cc1cc([C@@H](C)Nc2ccccc2C(=O)O)c2oc3c(c(=O)c2c1)CCN(S(=O)(=O)N1CCO[C@H](C)C1)C3 [Compound C144]
IC50 [1]: > 5 µM
IC50 [2]: ≤ 0.5 µM

C[C@@H]1CN(S(=O)(=O)N2CCc3c(oc4c([C@@H](C)Nc5ccccc5C(=O)O)cc(F)cc4c3=O)C2)CCO1 [Compound C145]
IC50 [1]: > 5 µM
IC50 [2]: ≤ 0.5 µM

C[C@@H](Nc1ccccc1C(=O)O)c1cc(F)cc2c(=O)c3c(oc12)CN(S(=O)(=O)C1CCOCC1)CC3 [Compound C146]
IC50 [1]: > 5 µM
IC50 [2]: ≤ 0.5 µM

Cc1cc([C@@H](C)Nc2ccccc2C(=O)O)c2oc3c(c(=O)c2c1)CCN(S(=O)(=O)N1CCOC2(CC2)C1)C3 [Compound C147]
IC50 [1]: > 5 µM
IC50 [2]: ≤ 0.5 µM

C[C@@H](Nc1ccccc1C(=O)O)c1cc(F)cc2c(=O)c3c(oc12)CN(S(=O)(=O)N1CCOC2(CC2)C1)CC3 [Compound C148]
IC50 [1]: > 5 µM
IC50 [2]: ≤ 0.5 µM

Cc1cc([C@@H](C)Nc2ccccc2C(=O)O)c2oc3c(c(=O)c2c1)CCN(S(=O)(=O)c1cccc2c1CCO2)C3 [Compound C149]
IC50 [1]: > 5 µM
IC50 [2]: ≤ 0.5 µM

C[C@@H](Nc1ccccc1C(=O)O)c1cc(F)cc2c(=O)c3c(oc12)CN(S(=O)(=O)c1cccc2c1CCO2)CC3 [Compound C150]
IC50 [1]: > 5 µM
IC50 [2]: ≤ 0.5 µM

Cc1cc([C@@H](C)Nc2ccccc2C(=O)O)c2oc3c(c(=O)c2c1)CCN(S(=O)(=O)c1c(Cl)ccc2c1CCO2)C3 [Compound C151]
IC50 [1]: > 5 µM
IC50 [2]: ≤ 0.5 µM

C[C@@H](Nc1ccccc1C(=O)O)c1cc(F)cc2c(=O)c3c(oc12)CN(S(=O)(=O)c1c(Cl)ccc2c1CCO2)CC3 [Compound C152]
IC50 [1]: > 5 µM
IC50 [2]: ≤ 0.5 µM
